# In PubChem BioAssay (NCI):
# Values joined by “and” are separate entries in the source; they are usually repeats but may differ in a detail not shown here. Identical values can stand only once.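 The compound was tested at five concentrations on cells cultured in 96-well plates, with a 48-hour exposure period. GI50: concentration for 50% inhibition of growth. TGI denotes the concentration required for complete inhibition of growth.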 Active and inactive are the calls of the source. Cut-off read from the data, not from the text of the source: active = GI50 below about 0.43 µM; inactive = the rest.
# What was measured:
# Assay in all cases: DTP human tumour cell line panel, 48 h
# [1] = tested on: IGROV1 ovarian
# [2] = tested on: SK-MEL-2 melanoma
# [3] = tested on: SK-MEL-28 melanoma
# [4] = tested on: U251 CNS
# [5] = tested on: NCI/ADR-RES ovarian
# [6] = tested on: COLO 205 colon
# [7] = tested on: PC-3 prostate
# [8] = tested on: NCI-H522 lung
# [9] = tested on: OVCAR-5 ovarian
Structure (SMILES),GI50 [1],TGI [1],GI50 [2],TGI [2] [µM],GI50 [3],TGI [3],GI50 [4],TGI [4],GI50 [5],TGI [5],GI50 [6],TGI [6],GI50 [7],TGI [7],GI50 [8],TGI [8],GI50 [9],TGI [9],outcome [6]
COc1ccc(-c2cc(-c3cc(Cl)ccc3Cl)nc3n[nH]c(N)c23)cc1,28.3 µM,> 100 µM,36.1 µM,> 100,26 µM,> 100 µM,8.95 µM,> 100 µM,18 µM,> 100 µM,34.6 µM,> 100 µM,35.9 µM,> 100 µM,17.3 µM,49.3 µM,58.2 µM,> 100 µM,–
CC[C@]12CCCN3CCc4c(n(c5ccccc45)C(=O)C1)[C@@H]32,–,> 100 µM,–,> 100,–,> 100 µM,–,> 52.2 µM,–,> 34.5 µM,–,> 34 µM,–,> 100 µM,–,7.2 µM,–,> 100 µM,–
CC1(C)N=C(N)N=C(N)N1c1cccc(CCCCc2cccc(S(=O)(=O)F)c2)c1,0.157 µM,> 58.3 µM,2.73 µM,> 58.5,4.1 µM,21.7 µM,0.456 µM,36 µM,> 79.2 µM,> 100 µM,1.53 µM,> 100 µM,0.157 µM,> 100 µM,2.55 µM,43.9 µM,–,> 100 µM,–
CN(C)CCOc1ccc(-c2nc(-c3ccc4c(c3)CC/C4=N\O)c(-c3ccncc3)[nH]2)cc1,4.38 µM and 18.6 µM,9.35 µM and 65.6 µM,0.108 µM and 0.367 µM,–,0.0188 µM and 0.029 µM,3.26 µM and 1.85 µM,4.83 µM and 2.35 µM,9.15 µM and 4.69 µM,14.1 µM and 62.7 µM,25 µM and > 100 µM,0.00987 µM and 0.0293 µM,3.1 µM and 5.06 µM,4.09 µM and 5.66 µM,8.12 µM and 13.7 µM,3.9 µM and 5.5 µM,9.59 µM and 21 µM,3.7 µM and 1.61 µM,7.55 µM and 6.27 µM,–
COc1ccc2oc(=O)cc(C(c3ccc[nH]3)c3ccc[nH]3)c2c1,0.106 µM,17.6 µM,0.616 µM,13.2,0.874 µM,14 µM,0.11 µM,12.9 µM,0.0651 µM,5.91 µM,0.221 µM,0.549 µM,0.108 µM,15.5 µM,0.348 µM,5.88 µM,0.128 µM,19.9 µM,–
CC(=O)N[C@@H](Cc1ccc(OP(=O)(O)O)cc1)C(=O)N[C@H]1CCC(=O)N2CCC[C@@H](C(=O)NCc3ccc(Cl)cc3)N2C1=O,> 25 µM,> 25 µM,> 25 µM,> 25,> 25 µM,> 25 µM,> 25 µM,> 25 µM,> 25 µM,> 25 µM,> 25 µM,> 25 µM,> 25 µM,> 25 µM,> 25 µM,> 25 µM,> 25 µM,> 25 µM,–
COc1ccc(OC)c(/C=N/NC(=O)Cc2csc3nc(-c4ccc(Br)cc4)cn23)c1,4.02 µM,26.7 µM,89.7 µM,> 100,41.5 µM,> 100 µM,13.8 µM,31.4 µM,12.8 µM,35.4 µM,35.7 µM,> 100 µM,13.5 µM,93.8 µM,22.7 µM,> 100 µM,50.2 µM,> 100 µM,–
O=C(O)C/C(=C\c1ccco1)C(=O)O,–,> 100 µM,–,> 100,–,> 100 µM,–,> 100 µM,–,> 100 µM,–,> 100 µM,–,> 100 µM,–,> 100 µM,–,> 100 µM,–
CC[C@]1(O)CC(OC2CC(N(C)C)C(O)C(C)O2)c2c(cc3c(c2O)C(=O)c2c(O)cccc2C3=O)[C@@H]1C(=O)OC (stereo partly drawn),–,3.21 µM,–,1.82,–,3.04 µM,–,5.57 µM,–,3.95 µM,–,3.79 µM,–,1.8 µM,–,1.65 µM,–,13.9 µM,–
COc1ccc(C2CC(c3cc(OC)c(OC)c(OC)c3)=NO2)cc1OCCCCOc1cc2c(cc1OC)C(=O)N1CCC[C@H]1C=N2 (stereo partly drawn),1.57 µM,3.06 µM,2.03 µM,4.8,2.07 µM,4.1 µM,1.73 µM,3.61 µM,6.95 µM,37.5 µM,1.96 µM,4.04 µM,0.585 µM,3.04 µM,0.61 µM,2.28 µM,3.13 µM,8.34 µM,–
N=C(N)c1ccc(OCc2cccc(COc3ccc(C(=N)N)cc3)c2)cc1,22.2 µM,> 100 µM,24.2 µM,> 100,5.15 µM,29.1 µM,3.73 µM,17.2 µM,> 100 µM,> 100 µM,15.1 µM,40.3 µM,12.4 µM,25.8 µM,16 µM,> 100 µM,29.1 µM,> 100 µM,–
COc1ccc2[nH]c(=O)c3c4ccccc4cn3c2c1,0.575 µM,5.23 µM,1.35 µM,7.66,0.663 µM,2.01 µM,0.388 µM,1.55 µM,0.308 µM,1.29 µM,0.373 µM,1.36 µM,0.429 µM,4.08 µM,0.576 µM,2.44 µM,0.659 µM,2.69 µM,–
Nc1c(C(=O)c2cccc(CCCN3CCOCC3)c2)cnn1-c1ccc(F)cc1,> 25 µM,> 25 µM,> 25 µM,> 25,> 25 µM,> 25 µM,> 25 µM,> 25 µM,> 25 µM,> 25 µM,> 25 µM,> 25 µM,> 25 µM,> 25 µM,> 25 µM,> 25 µM,> 25 µM,> 25 µM,–
COC(=O)CCC(=O)C(=O)OC,19000 µM,76800 µM,19700 µM,41400,17600 µM,60400 µM,33400 µM,–,72600 µM,–,–,–,27800 µM,84500 µM,13400 µM,30500 µM,26100 µM,–,inactive
CCOC(=O)c1ccc2[nH]c(-c3ccc(S(=O)(=O)F)cc3)cc(=O)c2c1,–,> 100 µM,–,> 100,–,> 100 µM,–,> 100 µM,–,> 100 µM,–,> 100 µM,–,> 100 µM,–,39.4 µM,–,> 100 µM,–
